In brackets after ≈: the same amount, converted by molar mass. Read-outs that look alike come from different tables or passages of the source.
Columns and labels:
[1] = system: Resistant Strains: Candida albicans C79, C6, C8, C31, C54, C70, C104, C138, C140; Candida stellatoidea C45; assay: microtiter minimum inhibitory concentration (MIC) test, resistant strains (MIC-R); assay type: cell-based; conditions: geometric mean of MICs against resistant strains, YNB pH 5.4, 37° C., 48 hours, lowest concentration preventing visible growth
Experimental: (§1) In vitro anti-fungal activity was determined in microtiter minimum inhibitory concentration (MIC) tests using Yeast Nitrogen Broth (YNB without amino acids, Difco., Detroit, Mich.) at pH 5.4. Yeasts were grown overnight in Sabouraud Dextrose Broth at 28° C. with shaking, and concentrations adjusted in sterile saline using a spectrophoptometer at 540 mμ. Compounds were dissolved in various vehicles and diluted in media to twice the final concentrations. The Cetus Pro/Pette system was used to serially dilute 50 μl in round bottom 96 well plates (Falcon, Lincoln Park, N.J.). The turbidometrically adjusted yeast suspensions were diluted 1:3,000 in YNB. These dilutions when added to the wells, produced a final inoculum of 3×10^3 /ml. Plates were incubated at 37° C. for 48 hours. MICs were defined as the lowest concentrations of compound that prevented visible growth. MICs were taken against the following organisms and expressed in the table above as the geometric mean.
(§2) MIC-R and MIC-S mean respectively MICs taken against resistant and sensitive strains.
Candida stellatoidea C45

[2] = system: Sensitive Strains: Candida albicans C141, Candida sp. C2, Candida sp. C109, Candida parapsilosis C67, Candida tropicalis C112, Torulopsis glabrata C95, Candida …; assay type: cell-based, Candida spp., Sacchararomyces; conditions: geometric mean of MICs against sensitive strains, YNB pH 5.4, 37° C., 48 hours, lowest concentration preventing visible growth
Experimental: as §1, §2
Candida parapsilosis C67
Candida tropicalis C112
Torulopsis glabrata C95
Candida pseudotropicalis C967
Candida guillermondii C137
Sacchararomyces mutant C147

CCCCCCCCCCNC(=O)C(NC(=O)C(N)Cc1c[nH]c2ccc(O)cc12)C1OC(n2ccc(=O)[nH]c2=O)C(O)C1O (centres unmarked) [Compound 13]
MIC-R [1]: 181 µg/mL (≈ 288 µM) | MIC-S [2]: 388 µg/mL (≈ 617 µM)

CC(C)=CCCC(C)=CCCC(C)=CCNC(=O)C(NC(=O)C(N)Cc1c[nH]c2ccc(O)cc12)C1OC(n2ccc(=O)[nH]c2=O)C(O)C1O (centres unmarked) [Compound 15]
MIC-R [1]: 143 µg/mL (≈ 206 µM) | MIC-S [2]: 362 µg/mL (≈ 523 µM)

CCCCNC(=O)[C@@H](NC(=O)[C@@H](N)Cc1c[nH]c2ccc(O)cc12)[C@H]1O[C@@H](n2ccc(=O)[nH]c2=O)[C@H](O)[C@@H]1O [Compound 1]
MIC-R [1]: > 4096 µg/mL | MIC-S [2]: > 4096 µg/mL

NC(Cc1c[nH]c2ccc(O)cc12)C(=O)NC(C(=O)NCc1ccccc1)C1OC(n2ccc(=O)[nH]c2=O)C(O)C1O (centres unmarked) [Compound 20]
MIC-R [1]: > 256 µg/mL | MIC-S [2]: > 256 µg/mL

CCCCCCCCCCCCNC(=O)C(NC(=O)C(N)Cc1cn(C)c2ccccc12)C1OC(n2ccc(=O)[nH]c2=O)C(O)C1O (centres unmarked) [Compound 25]
MIC-R [1]: > 256 µg/mL | MIC-S [2]: > 256 µg/mL

CCCCCCCCCCCCNC(=O)C(NC(=O)C(N)c1ccccc1)C1OC(n2ccc(=O)[nH]c2=O)C(O)C1O (centres unmarked) [Compound 24]
MIC-R [1]: 18 µg/mL (≈ 30.6 µM) | MIC-S [2]: 194 µg/mL (≈ 330 µM)

CCCCCCCCCCCCCCCCCCNC(=O)C(NC(=O)C(N)Cc1c[nH]c2ccc(O)cc12)C1OC(n2ccc(=O)[nH]c2=O)C(O)C1O (centres unmarked) [Compound 4]
MIC-R [1]: > 2048 µg/mL | MIC-S [2]: > 2048 µg/mL

CCCCCCCCCCCCNC(=O)C(NC(=O)C(N)Cc1ccc(OC)cc1)C1OC(n2ccc(=O)[nH]c2=O)C(O)C1O (centres unmarked) [Compound 23]
MIC-R [1]: 9.8 µg/mL (≈ 15.5 µM) | MIC-S [2]: 56 µg/mL (≈ 88.6 µM)

CCCCCCCCCCCCN(OCc1ccccc1)C(=O)C(NC(=O)C(N)Cc1c[nH]c2ccc(O)cc12)C1OC(n2ccc(=O)[nH]c2=O)C(O)C1O (centres unmarked) [Compound 14]
MIC-R [1]: 28 µg/mL (≈ 36.7 µM) | MIC-S [2]: 119 µg/mL (≈ 156 µM)

CCCCCCCCCCCCNC(=O)C(NC(=O)C(N)C(C)Cc1ccc(O)cn1)C1OC(n2ccc(=O)[nH]c2=O)C(O)C1O (centres unmarked) [Compound 10]
MIC-R [1]: 147 µg/mL (≈ 227 µM) | MIC-S [2]: 478 µg/mL (≈ 739 µM)

CCCCCCCCCCCCN(O)C(=O)C(NC(=O)C(N)Cc1c[nH]c2ccc(O)cc12)C1OC(n2ccc(=O)[nH]c2=O)C(O)C1O (centres unmarked) [Compound 18]
MIC-R [1]: 39 µg/mL (≈ 58 µM) | MIC-S [2]: 239 µg/mL (≈ 355 µM)

CCCCCCCCCCCCNC(=O)C(NC(=O)C(N)CCc1ccc2ccccc2n1)C1OC(n2ccc(=O)[nH]c2=O)C(O)C1O (centres unmarked) [Compound 16]
MIC-R ([1]; listed as drawing 72): 294 µg/mL (≈ 441 µM) | MIC-S ([2]; listed as drawing 72): 239 µg/mL (≈ 358 µM)

CCCCCCCCCCCCNC(=O)C(NC(=O)C(N)Cc1c[nH]c2ccc(O)cc12)C1OC(n2ccc(=O)[nH]c2=O)C(O)C1O (centres unmarked) [Compound 3, 6'-Dodecylamido-5-N-(5-hydroxytryptophanyl)UPOC]
MIC-R [1]: 23 µg/mL (≈ 35 µM) | MIC-S [2]: 478 µg/mL (≈ 728 µM)

CCCCCCCCCCCCNC(=O)C(NC(=O)C(N)C(C)Cn1ccnc1)C1OC(n2ccc(=O)[nH]c2=O)C(O)C1O (mixture of isomers) [Compound 11]
MIC-R [1]: 316 µg/mL | MIC-S [2]: 85 µg/mL

CCCCCCCCCCCCNC(=O)C(NC(=O)C(N)Cc1csc2ccc(O)cc12)C1OC(n2ccc(=O)[nH]c2=O)C(O)C1O (single isomer, unassigned) [Compound 22]
MIC-R ([1]; listed as drawing 80): > 256 µg/mL | MIC-S [2]: 158 µg/mL (≈ 234 µM)

CCCCCCCCCCCCCCNC(=O)C(NC(=O)C(N)Cc1c[nH]c2ccc(O)cc12)C1OC(n2ccc(=O)[nH]c2=O)C(O)C1O (centres unmarked) [Compound 9]
MIC-R [1]: > 256 µg/mL | MIC-S [2]: 147 µg/mL (≈ 215 µM)

CCCCCCCCCCCCNC(=O)C(NC(=O)[C@@H](N)C(C)Cc1ccc(OC)cc1)C1OC(n2ccc(=O)[nH]c2=O)C(O)C1O (some centres unmarked) [Compound 12, 6'-Dodecylamido-5-N-(2-S-amino-3-R,S-methyl-4-p-methoxyphenyl-butyryl) UPOC]
MIC-R [1]: 28 µg/mL (≈ 42.4 µM) | MIC-S [2]: 208 µg/mL (≈ 315 µM)

CCCCCCCCCCCCNC(=O)C(NC(=O)C(N)Cc1csc2ccc(O)cc12)C1OC(n2ccc(=O)[nH]c2=O)C(O)C1O (single isomer, unassigned) [Compound 21]
MIC-R [1]: 208 µg/mL (≈ 309 µM) | MIC-S [2]: 158 µg/mL (≈ 234 µM)

CCCCCCCCCCCCNC(=O)C(NC(=O)C(N)CCc1ccc2ccccc2n1)C1OC(n2ccc(=O)[nH]c2=O)C(O)C1O (centres unmarked) [Compound 17]
MIC-R ([1]; listed as drawing 73): 21 µg/mL (≈ 31.5 µM) | MIC-S ([2]; listed as drawing 73): 158 µg/mL (≈ 237 µM)

Reference: patent US5618793A, “Nikkomycin analogs” (Schering Corporation, priority 1995, dated 1997)
